# Test results taken from patent publication US10730889B2, “Amido spirocyclic amide and sulfonamide derivatives” (Forma TM, LLC, priority 2012, dated 2020).
# System: A2780 cells
# Assay: In-vitro cell proliferation assay (SRB, 72 hours)
# Type: cell-based
# Conditions: Homo sapiens, A2780, 72 h, A2780 cells, 72 hours, SRB; read-out: Cell Proliferation (IC50)
row,Structure (SMILES),IC50
1,"Cc1nonc1C(=O)N1CCC2(CC1)CC2CNC(=O)c1cc2ccncc2o1 (centres unmarked) [Example 118, N-[[6-(4-methyl-1,2,5-oxadiazole-3-carbonyl)-6-azaspiro[2.5]octan-2-yl]methyl]furo[2,3-c]pyridine-2-carboxamide]",1070 nM
2,"Cc1ncccc1C(=O)N1CCC2(CC1)CC2CNC(=O)c1cc2ccncc2o1 (centres unmarked) [Example 119, N-[[6-(2-methylpyridine-3-carbonyl)-6-azaspiro[2.5]octan-2-yl]methyl]furo[2,3-c]pyridine-2-carboxamide]",446 nM
3,"Cc1ccncc1C(=O)N1CCC2(CC1)CC2CNC(=O)c1cc2ccncc2o1 (centres unmarked) [Example 120, N-[[6-(4-methylpyridine-3-carbonyl)-6-azaspiro[2.5]octan-2-yl]methyl]furo[2,3-c]pyridine-2-carboxamide]",92.8 nM
4,"Cc1cc(C(=O)N2CCC3(CC2)CC3CNC(=O)c2cc3ccncc3o2)ccn1 (centres unmarked) [Example 121, N-[[6-(2-methylpyridine-4-carbonyl)-6-azaspiro[2.5]octan-2-yl]methyl]furo[2,3-c]pyridine-2-carboxamide]",1090 nM
5,"Cc1cnc(C(=O)N2CCC3(CC2)CC3CNC(=O)c2cc3ccncc3o2)cn1 (centres unmarked) [Example 122, N-[[6-(5-methylpyrazine-2-carbonyl)-6-azaspiro[2.5]octan-2-yl]methyl]furo[2,3-c]pyridine-2-carboxamide]",2000 nM
6,"O=C(NCC1CC12CCN(C(=O)c1cc(C3CC3)n[nH]1)CC2)c1cc2ccncc2o1 (centres unmarked) [Example 123, N-[[6-(3-cyclopropyl-1H-pyrazole-5-carbonyl)-6-azaspiro[2.5]octan-2-yl]methyl]furo[2,3-c]pyridine-2-carboxamide]",83 nM
7,"CCn1ncc(C(=O)N2CCC3(CC2)CC3CNC(=O)c2cc3ccncc3o2)c1C (centres unmarked) [Example 124, N-[[6-(1-ethyl-5-methyl-pyrazole-4-carbonyl)-6-azaspiro[2.5]octan-2-yl]methyl]furo[2,3-c]pyridine-2-carboxamide]",124 nM
8,"Cc1noc(C)c1C(=O)N1CCC2(CC1)CC2CNC(=O)c1cc2ccncc2o1 (centres unmarked) [Example 125, N-[[6-(3,5-dimethylisoxazole-4-carbonyl)-6-azaspiro[2.5]octan-2-yl]methyl]furo[2,3-c]pyridine-2-carboxamide]",221 nM
9,"CCn1cc(C(=O)N2CCC3(CC2)CC3CNC(=O)c2cc3ccncc3o2)cn1 (centres unmarked) [Example 126, N-[[6-(1-ethylpyrazole-4-carbonyl)-6-azaspiro[2.5]octan-2-yl]methyl]furo[2,3-c]pyridine-2-carboxamide]",833 nM
10,"N#Cc1ccc(C(=O)N2CCC3(CC2)CC3CNC(=O)c2cc3ccncc3o2)cn1 (centres unmarked) [Example 127, N-[[6-(6-cyanopyridine-3-carbonyl)-6-azaspiro[2.5]octan-2-yl]methyl]furo[2,3-c]pyridine-2-carboxamide]",2000 nM
11,"Cc1nc(C)c(C(=O)N2CCC3(CC2)CC3CNC(=O)c2cc3ccncc3o2)o1 (centres unmarked) [Example 128, N-[[6-(2,4-dimethyloxazole-5-carbonyl)-6-azaspiro[2.5]octan-2-yl]methyl]furo[2,3-c]pyridine-2-carboxamide]",29.2 nM
12,"O=C(NCC1CC12CCN(C(=O)c1ccnc(N3CCOCC3)c1)CC2)c1cc2ccncc2o1 (centres unmarked) [Example 129, N-[[6-(2-morpholinopyridine-4-carbonyl)-6-azaspiro[2.5]octan-2-yl]methyl]furo[2,3-c]pyridine-2-carboxamide]",37.3 nM
13,"Cn1cc(-c2ccno2)c(C(=O)N2CCC3(CC2)CC3CNC(=O)c2cc3ccncc3o2)n1 (centres unmarked) [Example 132, N-[[6-(4-isoxazol-5-yl-1-methyl-pyrazole-3-carbonyl)-6-azaspiro[2.5]octan-2-yl]methyl]furo[2,3-c]pyridine-2-carboxamide]",7.2 nM
14,"CC(=O)Nc1cc(C(=O)N2CCC3(CC2)CC3CNC(=O)c2cc3ccncc3o2)ccn1 (centres unmarked) [Example 133, N-[[6-(2-acetamidopyridine-4-carbonyl)-6-azaspiro[2.5]octan-2-yl]methyl]furo[2,3-c]pyridine-2-carboxamide]",696 nM
15,"O=C(NCC1CC12CCN(C(=O)c1c[nH]nc1-n1cnnn1)CC2)c1cc2ccncc2o1 (centres unmarked) [Example 134, N-[[6-[3-(tetrazol-1-yl)-1H-pyrazole-4-carbonyl]-6-azaspiro[2.5]octan-2-yl]methyl]furo[2,3-c]pyridine-2-carboxamide]",514 nM
16,"CC(=O)Nc1cccc(C(=O)N2CCC3(CC2)CC3CNC(=O)c2cc3ccncc3o2)n1 (centres unmarked) [Example 135, N-[[6-(6-acetamidopyridine-2-carbonyl)-6-azaspiro[2.5]octan-2-yl]methyl]furo[2,3-c]pyridine-2-carboxamide]",36.4 nM
17,"CCc1noc(C)c1C(=O)N1CCC2(CC1)CC2CNC(=O)c1cc2ccncc2o1 (centres unmarked) [Example 136, N-[[6-(3-ethyl-5-methyl-isoxazole-4-carbonyl)-6-azaspiro[2.5]octan-2-yl)methyl]furo[2,3-c]pyridine-2-carboxamide]",169 nM
18,"CCn1nc(C)cc1C(=O)N1CCC2(CC1)CC2CNC(=O)c1cc2ccncc2o1 (centres unmarked) [Example 137, N-[[6-(2-ethyl-5-methyl-pyrazole-3-carbonyl)-6-azaspiro[2.5]octan-2-yl]methyl]furo[2,3-c]pyridine-2-carboxamide]",116 nM

row,Structure (SMILES),IC50
1,"CCn1cc(C(=O)N2CCC3(CC2)CC3CNC(=O)c2cc3ccncc3o2)c(C)n1 (centres unmarked) [Example 138, N-[[6-(1-ethyl-3-methyl-pyrazole-4-carbonyl)-6-azaspiro[2.5]octan-2-yl)methyl]furo[2,3-c]pyridine-2-carboxamide]",2000 nM
2,"Cc1nocc1C(=O)N1CCC2(CC1)CC2CNC(=O)c1cc2ccncc2o1 (centres unmarked) [Example 139, N-[[6-(3-methylisoxazole-4-carbonyl)-6-azaspiro[2.5]octan-2-yl]methyl]furo[2,3-c]pyridine-2-carboxamide]",2000 nM
3,"Cc1ccn(CC(C)C(=O)N2CCC3(CC2)CC3CNC(=O)c2cc3ccncc3o2)n1 (centres unmarked) [Example 140, N-[[6-[2-methyl-3-(3-methylpyrazol-1-yl)propanoyl]-6-azaspiro[2.5]octan-2-yl]methyl]furo[2,3-c]pyridine-2-carboxamide]",2000 nM
4,"O=C(NCC1CC12CCN(C(=O)c1cn[nH]c1)CC2)c1cc2ccncc2o1 (centres unmarked) [Example 141, N-[[6-(1H-pyrazole-4-carbonyl)-6-azaspiro[2.5]octan-2-yl]methyl]furo[2,3-c]pyridine-2-carboxamide]",2000 nM
5,"CS(=O)(=O)N1CCC(CC(=O)N2CCC3(CC2)CC3CNC(=O)c2cc3ccncc3o2)CC1 (centres unmarked) [Example 142, N-[[6-[2-(1-methylsulfonyl-4-piperidyl)acetyl]-6-azaspiro[2.5]octan-2-yl]methyl]furo[2,3-c]pyridine-2-carboxamide]",97.1 nM
6,"CN1CCOC(C(=O)N2CCC3(CC2)CC3CNC(=O)c2cc3ccncc3o2)C1 (centres unmarked) [Example 143, N-[[6-(4-methylmorpholine-2-carbonyl)-6-azaspiro[2.5]octan-2-yl]methyl]furo[2,3-c]pyridine-2-carboxamide]",2000 nM
7,"CC(C)C(=O)N1CC(C(=O)N2CCC3(CC2)CC3CNC(=O)c2cc3ccncc3o2)C1 (centres unmarked) [Example 144, N-[[6-[1-(2-methylpropanoyl)azetidine-3-carbonyl]-6-azaspiro[2.5]octan-2-yl]methyl]furo[2,3-c]pyridine-2-carboxamide]",375 nM
8,"CC(=O)N1CC(C(=O)N2CCC3(CC2)CC3CNC(=O)c2cc3ccncc3o2)C1 (centres unmarked) [Example 145, N-[[6-(1-acetylazetidine-3-carbonyl)-6-azaspiro[2.5]octan-2-yl]methyl]furo[2,3-c]pyridine-2-carboxamide]",2000 nM
9,"O=C(NCC1CC12CCN(C(=O)C1CCN(c3cccnn3)C1)CC2)c1cc2ccncc2o1 (centres unmarked) [Example 146, N-[[6-(1-pyridazin-3-ylpyrrolidine-3-carbonyl)-6-azaspiro[2.5]octan-2-yl)methyl]furo[2,3-c]pyridine-2-carboxamide]",74.5 nM
10,"O=C(NCC1CC12CCN(C(=O)CC1CCN(c3ncccn3)CC1)CC2)c1cc2ccncc2o1 (centres unmarked) [Example 147, N-[[6-[2-(1-pyrimidin-2-yl-4-piperidyl)acetyl]-6-azaspiro[2.5]octan-2-yl]methyl]furo[2,3-c]pyridine-2-carboxamide]",74.4 nM
11,"CC(C)N1CCC(CC(=O)N2CCC3(CC2)CC3CNC(=O)c2cc3ccncc3o2)CC1 (centres unmarked) [Example 148, N-[[6-[2-(1-isopropyl-4-piperidyl)acetyl]-6-azaspiro[2.5]octan-2-yl]methyl]furo[2,3-c]pyridine-2-carboxamide]",102 nM
12,"CN1CCC(CC(=O)N2CCC3(CC2)CC3CNC(=O)c2cc3ccncc3o2)CC1 (centres unmarked) [Example 149, N-[(6-[2-(1-methyl-4-piperidyl)acetyl]-6-azaspiro[2.5]octan-2-yl]methyl]furo[2,3-c]pyridine-2-carboxamide]",496 nM
13,"CC1(CC(=O)N2CCC3(CC2)CC3CNC(=O)c2cc3cnccc3[nH]2)COC1 (centres unmarked) [Example 150, N-([6-[2-(3-methyloxetan-3-yl)acetyl]-6-azaspiro[2.5]octan-1-yl]methyl)-1H-pyrrolo[3,2-c]pyridine-2-carboxamide]",265 nM
14,"N#Cc1ccccc1CC(=O)N1CCC2(CC1)CC2CNC(=O)c1cc2ccncc2o1 (centres unmarked) [Example 152, N-[[6-[2-(2-cyanophenyl)acetyl]-6-azaspiro[2.5]octan-2-yl]methyl]furo[2,3-c]pyridine-2-carboxamide]",262 nM
15,"COCCC(=O)N1CCC2(CC1)CC2CNC(=O)c1cc2ccncc2o1 (centres unmarked) [Example 153, N-[[6-(3-methoxypropanoyl)-6-azaspiro[2.5]octan-2-yl]methyl]furo[2,3-c]pyridine-2-carboxamide]",2000 nM
16,"O=C(NCC1CC12CCN(C(=O)Cc1ccc(S(=O)(=O)C(F)(F)F)cc1)CC2)c1cc2ccncc2o1 (centres unmarked) [Example 154, N-[[6-[2-[4-(trifluoromethylsulfonyl)phenyl]acetyl]-6-azaspiro[2.5]octan-2-yl]methyl]furo[2,3-c]pyridine-2-carboxamide]",2610 nM
17,"CC(=O)N(C)CCC(=O)N1CCC2(CC1)CC2CNC(=O)c1cc2ccncc2o1 (centres unmarked) [Example 155, N-[[6-[3-[acetyl(methyl]amino]propanoyl]-6-azaspiro[2.5]octan-2-yl]methyl]furo[2,3-c]pyridine-2-carboxamide]",2000 nM
